US10500166B2, “Methods for the treatment of erectile dysfunction using fispemifene” (QUATRX PHARMACEUTICALS, priority 2007, dated 2019)

Assays:
free testosterone = experiment: Example 3 study in hypogonadal men: serum free testosterone measured by equilibrium dialysis (ITT); type: in vivo, human
Method: FIG. 6 depicts a graph of the data of the study from Example 3 showing serum free testosterone levels (ng/dL) measured by equilibrium dialysis over time for each of the treatment groups. The bars from left to right for each of the BL (baseline), 2 week, 4 week, and 6 week timepoints (the 6 week timepoint occurred 2 weeks after the discontinuation of study drug at week 4) correspond to the placebo, 100 mg, 200 mg, and 300 mg/day doses, respectively;
(§1) A randomized, double-blind, placebo controlled, parallel-group study of once-daily doses of fispemifene (100, 200, and 300 mg/day) given for 4 weeks was conducted in a population of hypogonadal men. Subjects were required to meet all of the following inclusion criteria at screening and prior to randomization to be eligible for the study:
(§2) There were 77 subjects total. The number of subjects randomized to the 100 mg fispemifene, 200 mg fispemifene, 300 mg fispemifene, and placebo arms were 21, 21, 19, and 16, respectively.
(§3) Subjects were randomly assigned to one of four treatment groups in a 1:1:1:1 ratio: • Treatment A (100 mg): fispemifene 100 mg+placebo+placebo; • Treatment B (200 mg): fispemifene 100 mg+fispemifene 100 mg+placebo; • Treatment C (300 mg): fispemifene 100 mg+fispemifene 100 mg+fispemifene 100 mg; and • Treatment D (Placebo): placebo+placebo+placebo.
(§4) Subjects took one dose (three capsules) of study medication once a day at home for 4 weeks. Capsules were to be taken in the morning immediately after breakfast, with the exception of the morning of the Week 4 visit. Capsules were not to be taken on the morning of the Week 4 visit because trough plasma levels of fispemifene were determined by a blood sample taken at this visit. Each subject was randomly assigned to treatment with one of the 3 different dose regimens of fispemifene or placebo vehicle. Each subject received a 4 week supply of study drug.
(§5) Blood samples were taken from the subjects within 1 week prior to dosing with study drug to establish baseline values; after 2 and 4 weeks of randomization; and 2 weeks after the last dose of study drug. Serum was prepared from those samples and used to determine the mean % change from baseline in total testosterone, free testosterone, SHBG (sex hormone-binding globulin), DHT (dihydrotestosterone), E2 (estradiol), LH (luteinizing hormone), FSH (follicle stimulating hormone), and inhibin B.
1. Percent change from baseline in free testosterone and calculated free testosterone at Weeks 2, 4, and 6;

[1] = test system: SHBG (sex hormone-binding globulin); experiment: Example 3 study in hypogonadal men: serum sex hormone binding globulin (ITT); type: in vivo, human; conditions: Baseline (Visit 2)
Method: as §1, §2, §3, §4, §5
3. Percent change from baseline in SHBG, DHT, E2, LH, FSH, inhibin B, and testosterone/E2 ratio at Weeks 2, 4, and 6.

[2] = 100 mg/day, Week 6 (2 weeks after discontinuation)
[3] = 200 mg/day, Week 6 (2 weeks after discontinuation)
[4] = 300 mg/day, Week 6 (2 weeks after discontinuation)

**Q.** With `OCCOCCOc1ccc(/C(=C(/CCCl)c2ccccc2)c2ccccc2)cc1` [Fispemifene, (Z)-2-{2-[4-(4-Chloro-1,2-diphenylbut-1-enyl)phenoxy]ethoxy}ethanol] as the molecule, how does the “Free Testosterone, Max” value (free testosterone; 100 mg/day, Baseline (Visit 2)) read?
**A.** 12.20 ng/dL

**Q.** And the “Free Testosterone, Mean ± SD” value (free testosterone; 100 mg/day, Baseline (Visit 2))?
**A.** 8.35 ± 2.536 ng/dL

**Q.** What about the “Free Testosterone, Median” value (free testosterone; 100 mg/day, Baseline (Visit 2)) of the same molecule?
**A.** 8.40 ng/dL

**Q.** And the “Free Testosterone, Min” value (free testosterone; 100 mg/day, Baseline (Visit 2))?
**A.** 3.20 ng/dL

**Q.** What about the “Free Testosterone, Max” value (free testosterone; 100 mg/day, Week 2) of the same molecule?
**A.** 17.7 ng/dL

**Q.** What about the “Free Testosterone, Mean ± SD” value (free testosterone; 100 mg/day, Week 2) of the same molecule?
**A.** 11.6 ± 3.93 ng/dL

**Q.** And the “Free Testosterone, Median” value (free testosterone; 100 mg/day, Week 2)?
**A.** 10.3 ng/dL

**Q.** What about the “Free Testosterone, Min” value (free testosterone; 100 mg/day, Week 2) of the same molecule?
**A.** 5.7 ng/dL

**Q.** And the “Free Testosterone, Max” value (free testosterone; 100 mg/day, Week 4)?
**A.** 18.2 ng/dL

**Q.** What about the “Free Testosterone, Mean ± SD” value (free testosterone; 100 mg/day, Week 4) of the same molecule?
**A.** 11.3 ± 3.40 ng/dL

**Q.** And the “Free Testosterone, Median” value (free testosterone; 100 mg/day, Week 4)?
**A.** 10.8 ng/dL

**Q.** And the “Free Testosterone, Min” value (free testosterone; 100 mg/day, Week 4)?
**A.** 6.4 ng/dL

**Q.** And the “Free Testosterone, Max” value (free testosterone; [2])?
**A.** 13.30 ng/dL

**Q.** And the Free Testosterone, Mean ± SD (free testosterone; [2])?
**A.** 8.93 ± 0.023 ng/dL

**Q.** And the “Free Testosterone, Median” value (free testosterone; [2])?
**A.** 9.80 ng/dL

**Q.** What about the “Free Testosterone, Min” value (free testosterone; [2]) of the same molecule?
**A.** 4.90 ng/dL

**Q.** And the Free Testosterone, % Change from Baseline, Mean ± SD (free testosterone; 100 mg/day, to Week 2)?
**A.** 0.4 ± 0.00387%

**Q.** And the “Free Testosterone, Max” value (free testosterone; 200 mg/day, Baseline (Visit 2))?
**A.** 15.90 ng/dL

**Q.** And the “Free Testosterone, Mean ± SD” value (free testosterone; 200 mg/day, Baseline (Visit 2))?
**A.** 8.48 ± 3.043 ng/dL

**Q.** And the “Free Testosterone, Median” value (free testosterone; 200 mg/day, Baseline (Visit 2))?
**A.** 8.50 ng/dL

**Q.** And the “Free Testosterone, Min” value (free testosterone; 200 mg/day, Baseline (Visit 2))?
**A.** 4.30 ng/dL

**Q.** What about the “Free Testosterone, Max” value (free testosterone; 200 mg/day, Week 2) of the same molecule?
**A.** 16.4 ng/dL

**Q.** And the “Free Testosterone, Mean ± SD” value (free testosterone; 200 mg/day, Week 2)?
**A.** 10.6 ± 3.52 ng/dL

**Q.** What about the “Free Testosterone, Median” value (free testosterone; 200 mg/day, Week 2) of the same molecule?
**A.** 10.0 ng/dL

**Q.** What about the “Free Testosterone, Min” value (free testosterone; 200 mg/day, Week 2) of the same molecule?
**A.** 4.8 ng/dL

**Q.** And the “Free Testosterone, Max” value (free testosterone; 200 mg/day, Week 4)?
**A.** 19.4 ng/dL

**Q.** What about the “Free Testosterone, Mean ± SD” value (free testosterone; 200 mg/day, Week 4) of the same molecule?
**A.** 11.8 ± 3.80 ng/dL

**Q.** And the “Free Testosterone, Median” value (free testosterone; 200 mg/day, Week 4)?
**A.** 12.2 ng/dL

**Q.** And the “Free Testosterone, Min” value (free testosterone; 200 mg/day, Week 4)?
**A.** 5.2 ng/dL

**Q.** And the “Free Testosterone, Max” value (free testosterone; [3])?
**A.** 16.80 ng/dL

**Q.** What about the “Free Testosterone, Mean ± SD” value (free testosterone; [3]) of the same molecule?
**A.** 9.10 ± 3.307 ng/dL

**Q.** What about the “Free Testosterone, Median” value (free testosterone; [3]) of the same molecule?
**A.** 8.00 ng/dL

**Q.** And the “Free Testosterone, Min” value (free testosterone; [3])?
**A.** 5.40 ng/dL

**Q.** What about the “Free Testosterone, Max” value (free testosterone; 300 mg/day, Baseline (Visit 2)) of the same molecule?
**A.** 12.30 ng/dL

**Q.** And the “Free Testosterone, Mean ± SD” value (free testosterone; 300 mg/day, Baseline (Visit 2))?
**A.** 8.19 ± 2.966 ng/dL

**Q.** And the “Free Testosterone, Median” value (free testosterone; 300 mg/day, Baseline (Visit 2))?
**A.** 8.20 ng/dL

**Q.** And the “Free Testosterone, Max” value (free testosterone; 300 mg/day, Week 2)?
**A.** 22.0 ng/dL

**Q.** What about the “Free Testosterone, Mean ± SD” value (free testosterone; 300 mg/day, Week 2) of the same molecule?
**A.** 12.1 ± 4.96 ng/dL

**Q.** And the “Free Testosterone, Median” value (free testosterone; 300 mg/day, Week 2)?
**A.** 12.9 ng/dL

**Q.** What about the “Free Testosterone, Min” value (free testosterone; 300 mg/day, Week 2) of the same molecule?
**A.** 0.2 ng/dL

**Q.** What about the “Free Testosterone, Max” value (free testosterone; 300 mg/day, Week 4) of the same molecule?
**A.** 21.2 ng/dL

**Q.** And the “Free Testosterone, Mean ± SD” value (free testosterone; 300 mg/day, Week 4)?
**A.** 12.5 ± 5.00 ng/dL

**Q.** And the “Free Testosterone, Median” value (free testosterone; 300 mg/day, Week 4)?
**A.** 14.0 ng/dL

**Q.** And the “Free Testosterone, Min” value (free testosterone; 300 mg/day, Week 4)?
**A.** 0.1 ng/dL

**Q.** And the “Free Testosterone, Max” value (free testosterone; [4])?
**A.** 17.30 ng/dL

**Q.** What about the “Free Testosterone, Mean ± SD” value (free testosterone; [4]) of the same molecule?
**A.** 9.30 ± 3.567 ng/dL

**Q.** And the “Free Testosterone, Median” value (free testosterone; [4])?
**A.** 9.80 ng/dL

**Q.** What about the “Free Testosterone, Min” value (free testosterone; [4]) of the same molecule?
**A.** 0.30 ng/dL

**Q.** And the “Sex Hormone Binding Globulin, Max” value ([1]; 100 mg/day)?
**A.** 35.0 nmol/L

**Q.** And the “Sex Hormone Binding Globulin, Mean ± SD” value ([1]; 100 mg/day)?
**A.** 18.4 ± 6.96 nmol/L

**Q.** And the “Sex Hormone Binding Globulin, Median” value ([1]; 100 mg/day)?
**A.** 17.0 nmol/L

**Q.** What about the “Sex Hormone Binding Globulin, Min” value ([1]; 100 mg/day) of the same molecule?
**A.** 8.5 nmol/L

**Q.** What about the “Sex Hormone Binding Globulin, Max” value ([1]; 200 mg/day) of the same molecule?
**A.** 51.0 nmol/L

**Q.** And the “Sex Hormone Binding Globulin, Mean ± SD” value ([1]; 200 mg/day)?
**A.** 19.5 ± 11.12 nmol/L
